# Reference: patent US11203773B2, “Designer ribosomes and methods of use thereof for incorporating non-standard amino acids into polypeptides” (Yale University, priority 2016, dated 2021)
# Like-named read-outs stand apart in the source and are kept apart here.
# Columns and labels:
# [1] = target: T1, E. coli GluRS (Escherichia coli, UniProt P04805); assay: Aminoacylation of 32P-tRNA with α- and β3-amino acids; format: biochemical; set-up: made in house; host or cells: E. coli BL21(DE3)
# [2] = target: T1, E. coli GluRS; assay: Deacylation assay of [32P]-aminoacyl-tRNA; format: biochemical; set-up: made in house; host or cells: E. coli BL21(DE3); settings: for krev (apparent rate of deacylation): deacylation of aminoacyl-tRNA, GluRS 5.0 μM, 25° C.
# Procedure: (§3) Deacylation assays. Large scale (200 μL) aminoacylation reactions were initiated using the conditions described above (iv). The reactions were allowed to proceed for 1 h at 37° C., after which each reaction mixture was phenol/chloroform extracted. In each case, the aminoacylated tRNA product was ethanol precipitated, and the buffer was exchanged using a micro Bio-Spin 6 column (BioRad) following the procedure specified by the manufacturer and 100 mM HEPES (pH 8.0) containing 100 mM KCl. The precise extent of aminoacylation was calculated using the procedure described above; the 2 μM concentration corresponds to total aminoacylated tRNA. Assays were performed at 25° C. in a 50 μL reaction with 2 μM [^32P]-aminoacyl-tRNA in 100 mM HEPES (pH 7.0) containing 100 mM KCl and 15 mM MgCl2.
# [3] = target: T1, E. coli GluRS; assay: Adenylation of α- and β3-amino acids, pyrophosphate exchange assay; settings: for kcat (min^−1) or RSA (^32P-ATP formed min^−1 enzyme μM^−1): 25° C., pH 7.0
# Procedure: (§4) Adenylation of α- and β-Amino Acids Catalyzed by E. coli PheRS, GlyRS, MetRS, and GluRS. […] Briefly, assay mixtures (50 μL) assembled at 25° C. contained the requisite α- or β^3-amino acid substrate (between 5 μM and 5 mM) in 100 mM HEPES (pH 7.0) containing 100 mM KCl, 15 mM MgCl2, 2 mM ATP, 0.5 mM NaPPi, and 50 μCi [^32P]-NaPPi). Reactions were initiated upon addition of enzyme (10 nM MetRS, 10 nM PheRS, or 50 nM GlyRS; 100 nM GluRS for reactions with α-Glu or 1.13 μM GluRS for reactions with β^3-Glu), incubated for various times (10 sec to 10 min), and halted by adding a 5 μL reaction aliquot to 100 μL quenching solution (10% charcoal, 0.5% HCl). 50 μL of 200 mM NaPPi in 1.5 N HCl was then added to each quenched reaction to decrease nonspecific binding of pyrophosphate to the charcoal. Each quenched reaction was then filtered through Whatman filter paper (number 3), previously washed with washing solution (200 mM NaPPi in 1 N HCl) using a 96-well BIO-DOT® apparatus (BioRad). Each well of the apparatus was then washed four times with 200 μL aliquots of washing solution (by pipetting washing solution up and down at least 10 times per wash) to minimize nonspecific binding of pyrophosphate to charcoal. Each experimental well was paired with an analogous control well (no-enzyme control) that lacked enzyme; a single membrane contained time points for both α- and β^3-amino acid substrates and all no-enzyme controls. The membrane was allowed to dry and was protected with a sheet of Microseal B adhesive seals (Biorad) prior to exposure to a BAS Storage Phosphor screen. Screens were imaged on a Typhoon 9500FLA biomolecule imager and the signal intensity of each dot was quantified using ImageJ to determine the relative amount of [^32P]-ATP formed as a function of time (Ctime). Each raw value were corrected by subtracting the intensity of the dot corresponding to the appropriate no-enzyme control (Cblank) and the resulting corrected values of Ccorr (representing the relative amounts of ^32P-ATP formed) were plotted as a function of time to determine values of relative ^32P-ATP formed per minute. Those values were divided by the concentration of enzyme used, and the data was plotted as relative specific activity (^32P-ATP formed min^−1×μM^−1 enzyme) and fitted using Prism by performing nonlinear regression using the least squares method and Equation 1 to obtain RSA (relative specific activity) and KM values (Equation 1 and Table 2).
# (§5) In Equation 1, v is the apparent relative specific activity (relative ^32P-ATP formed per minute) obtained at each substrate concentration divided by the enzyme concentration, RSA is the relative specific activity, S is the concentration of substrate, and KM is the Michaelis-Menten constant.
# [4] = target: T2, E. coli MetRS (Escherichia coli, UniProt P00959); settings: for krev (apparent rate of deacylation): deacylation of aminoacyl-tRNA, MetRS 500 nM, 25° C.
# T2 sequence (P00959 whole entry): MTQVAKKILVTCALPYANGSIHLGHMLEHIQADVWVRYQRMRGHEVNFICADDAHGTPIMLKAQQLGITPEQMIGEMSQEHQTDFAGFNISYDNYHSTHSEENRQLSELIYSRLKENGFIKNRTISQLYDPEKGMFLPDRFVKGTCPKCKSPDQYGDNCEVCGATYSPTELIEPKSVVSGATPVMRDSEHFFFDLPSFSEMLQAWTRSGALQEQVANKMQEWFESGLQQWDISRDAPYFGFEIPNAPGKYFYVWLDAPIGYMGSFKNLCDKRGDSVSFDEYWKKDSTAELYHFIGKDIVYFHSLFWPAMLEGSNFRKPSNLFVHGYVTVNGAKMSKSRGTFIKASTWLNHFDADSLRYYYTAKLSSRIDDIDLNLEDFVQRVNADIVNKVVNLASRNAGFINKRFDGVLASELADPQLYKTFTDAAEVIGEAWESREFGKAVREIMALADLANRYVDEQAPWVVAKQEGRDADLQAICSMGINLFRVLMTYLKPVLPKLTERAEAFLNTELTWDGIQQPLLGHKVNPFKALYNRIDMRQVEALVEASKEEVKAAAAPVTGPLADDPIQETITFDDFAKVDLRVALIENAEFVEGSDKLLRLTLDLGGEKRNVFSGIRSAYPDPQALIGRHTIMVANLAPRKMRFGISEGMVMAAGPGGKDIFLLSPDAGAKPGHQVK
# Procedure: as §3
# [5] = target: T2, E. coli MetRS
# Procedure: Aminoacylation of α- and β^3-amino acids. All tRNAs were prepared for aminoacylation by heating ^32P-tRNA (in 100 mM HEPES (pH 7.0)) to 95° C. for 3 min, and adding sufficient aminoacylation buffer (100 mM HEPES (pH 7.0), 100 mM KCl, 15 mM MgCl2) to ensure [^32P-tRNA]=4 μM. This tRNA mixture was allowed to cool at RT for 30 min. […] Equal volumes of the tRNA and amino acid mix were combined, and enzyme was added to initiate the reaction. The final concentration of tRNA after mixing was 2 μM. Reactions were quenched at various time points by mixing 1 μL of the reaction mixture with 4 μL of P1 (Sigma) or S1 (Invitrogen) nuclease solution (0.5 U/μL final prepared from a 10 U/μL stock solution in 10 mM NaOAc (pH 5.0). PEI cellulose TLC plates were run as previously described (Ledoux, et al., Methods, 44:74 (2008)), exposed to a BAS Storage Phosphor Screen, and imaged using a Typhoon FLA9500 biomolecule imager. The intensity of each band was quantified using ImageJ. The sum of the intensities of the bands corresponding to [^32P]-AMP (IAMP) and aminoacyl-[^32P]-AMP (IAA) was set equal to 2 μM, and the concentration of aminoacylated-tRNA at each time point and each enzyme concentration (μM product formed, x) calculated from the equation x=[(IAA×2 μM)/(IAA+IAMP)]. The increase in aminoacyl-^32P-AMP over time was divided by the amount of enzyme used, plotted as a function of substrate concentration and fitted to a hyperbolic equation to obtain kcat and KM values, using Equation 1 and Prism as described for the adenylation reactions. For all aminoacylation reactions, kcat has units of reciprocal time (min^−1).
# [6] = target: T2, E. coli MetRS; settings: for kcat (min^−1) or RSA (^32P-ATP formed min^−1 enzyme μM^−1): 25° C., pH 7.0
# Procedure: as §4, §5
# [7] = target: T3, E. coli TyrRS (Escherichia coli, UniProt P0AGJ9); assay: Aminoacylation of 32P-tRNA with α- and β3-amino acids; format: biochemical
# T3 construct: made in house; host or cells: E. coli BL21(DE3)
# T3 sequence (P0AGJ9 1-424): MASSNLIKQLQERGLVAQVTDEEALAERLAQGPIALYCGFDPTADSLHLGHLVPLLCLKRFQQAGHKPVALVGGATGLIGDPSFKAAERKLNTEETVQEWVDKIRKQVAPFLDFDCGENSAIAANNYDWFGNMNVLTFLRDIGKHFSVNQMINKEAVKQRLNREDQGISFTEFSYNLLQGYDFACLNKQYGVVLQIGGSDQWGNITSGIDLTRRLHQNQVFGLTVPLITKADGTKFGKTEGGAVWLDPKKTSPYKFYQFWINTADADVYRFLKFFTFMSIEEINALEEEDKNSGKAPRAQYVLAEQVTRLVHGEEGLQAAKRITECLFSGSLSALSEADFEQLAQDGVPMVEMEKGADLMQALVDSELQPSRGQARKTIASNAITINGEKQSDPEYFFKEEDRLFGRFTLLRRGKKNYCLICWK
# [8] = target: T3, E. coli TyrRS; assay: Adenylation of α- and β-Tyr, coupled MESG/PNP pyrophosphate release assay; format: biochemical
# From the text: ii. Adenylation of α- and β-Tyr catalyzed by E. coli TyrRS. These reactions were monitored spectrophotometrically in a coupled assay using inorganic pyrophosphatase, 2-amino-6-mercapto-7-methylpurine ribonucleoside (MESG), and purine nucleoside phosphorylase (PNP) to monitor the rate of pyrophosphate release, according to the manufacturer's instructions (Enzcheck Pyrophosphate assay kit, Thermo Fisher Scientific). The assay measures the increase in absorbance at 360 nm due to MESG phosphorolysis, and two molecules of MESG are consumed per pyrophosphate generated. This direct assay could be employed for TyrRS because the rate of ATP hydrolysis (in the absence of amino acid substrate) was insignificant, which was not the case for the other synthetases which therefore required the more laborious pyrophosphate exchange assay described above. […] For TyrRS, kcat is the turnover number (units of reciprocal time) since the change in absorbance can be directly correlated to concentration of pyrophosphate formed.
# [9] = target: T3, E. coli TyrRS; assay: Deacylation assay of [32P]-aminoacyl-tRNA; format: biochemical; settings: for krev (apparent rate of deacylation): deacylation of aminoacyl-tRNA, TyrRS 1 μM, 25° C.
# Procedure: as §3
# [10] = target: T4, E. coli PheRS (Escherichia coli, UniProt P08312); assay: Adenylation of α- and β3-amino acids, pyrophosphate exchange assay
# T4 sequence (P08312 whole entry): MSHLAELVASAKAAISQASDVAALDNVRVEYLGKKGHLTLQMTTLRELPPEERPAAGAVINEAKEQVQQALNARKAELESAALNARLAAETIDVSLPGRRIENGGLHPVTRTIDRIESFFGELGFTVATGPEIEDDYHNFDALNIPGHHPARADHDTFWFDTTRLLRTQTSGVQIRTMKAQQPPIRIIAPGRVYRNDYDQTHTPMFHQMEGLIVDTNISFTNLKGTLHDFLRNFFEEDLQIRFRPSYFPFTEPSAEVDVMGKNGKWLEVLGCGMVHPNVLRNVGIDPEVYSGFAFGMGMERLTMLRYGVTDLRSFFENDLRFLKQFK
# T4 sequence (P07395 whole entry partner): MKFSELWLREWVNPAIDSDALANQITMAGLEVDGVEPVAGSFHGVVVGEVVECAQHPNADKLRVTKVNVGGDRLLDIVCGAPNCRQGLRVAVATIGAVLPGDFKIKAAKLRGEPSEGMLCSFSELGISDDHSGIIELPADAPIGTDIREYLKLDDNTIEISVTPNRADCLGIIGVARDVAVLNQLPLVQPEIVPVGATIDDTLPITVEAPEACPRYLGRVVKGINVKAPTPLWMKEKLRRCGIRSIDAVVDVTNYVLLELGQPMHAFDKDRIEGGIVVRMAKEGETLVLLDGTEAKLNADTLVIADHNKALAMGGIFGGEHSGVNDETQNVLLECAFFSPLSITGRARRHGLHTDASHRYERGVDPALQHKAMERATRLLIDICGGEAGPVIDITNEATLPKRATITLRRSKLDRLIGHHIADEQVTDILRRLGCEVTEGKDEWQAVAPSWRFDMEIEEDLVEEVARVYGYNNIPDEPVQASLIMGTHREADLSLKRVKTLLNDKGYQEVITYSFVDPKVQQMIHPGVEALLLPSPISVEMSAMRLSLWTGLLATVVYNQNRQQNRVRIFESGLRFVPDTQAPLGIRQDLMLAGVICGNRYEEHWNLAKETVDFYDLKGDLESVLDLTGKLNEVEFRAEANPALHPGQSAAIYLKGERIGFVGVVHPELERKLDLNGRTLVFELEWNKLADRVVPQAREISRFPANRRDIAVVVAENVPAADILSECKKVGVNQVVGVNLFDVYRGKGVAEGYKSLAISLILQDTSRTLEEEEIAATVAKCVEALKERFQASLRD
# Procedure: as §4, §5
# [11] = target: T4, E. coli PheRS; assay: Deacylation assay of [32P]-aminoacyl-tRNA; format: biochemical; set-up: made in house; host or cells: E. coli BL21(DE3); settings: deacylation of aminoacyl-tRNA, PheRS 500 nM, 25° C.
# Procedure: as §3
# [12] = target: T4, E. coli PheRS; assay: Aminoacylation of 32P-tRNA with α- and β3-amino acids; format: biochemical; set-up: made in house; host or cells: E. coli BL21(DE3)
# [13] = test system: BL21(DE3) cells expressing 040329 ribosomes along with WT ribosomes; assay: Expression of DHFR in 19/20 minimal media supplemented with amino acid (SDS-PAGE); format: cell-based, E. coli; settings: 040329 + WT ribosomes, media supplemented with 1 mM of the amino acid
# From the text: (§1) To evaluate the extent of in vivo β^3-amino acid incorporation, BL21 (DE3) cells were co-transformed via electroporation (vide infra) with two plasmids. […] The other plasmid encoded either the WT rrnb sequence (pLK35-rrnb), the 040329 mutant reported by Hecht (pLK35-040329.rrnb), or the P7A7 mutant (pLK35-P7A7.rrnb) identified during the puromycin sensitivity screen described above.
# (§2) ii. β^3-amino acid incorporation. The subsequent protocol for in vivo β^3-amino acid incorporation employed minimal media and was adapted from procedures reported by Tirrell and Cropp (Liu, et al., Bioorg Med Chem Lett, 20:5613 (2010); Mandavi, et al., J Am Chem Soc, 135:2979 (2013)). Briefly, all 5 mL of the co-transformed cells prepared as described above were diluted into 100 mL of LB containing 50 ng/mL of kanamycin and […] of carbenicillin and grown to OD600=1.0, spun down, and then resuspended in 1/10th the original volume of 19/20 minimal media (10.5 g/L M9 salts, 0.1 mM CaCl2, 1 mM MgSO4, 1% glycerol, 100 μM of each amino acid (minus α-Phe), 25 mg/L thiamine, […] carbenicillin, 30 ng/mL kanamycin, 1 mM IPTG) supplemented with 1 mM of α-Phe or a β^3-Phe analog. Cells were grown overnight (18 h) at 37° C. while shaking (200 rpm). The cells were harvested by centrifugation (10 min at 4000×g) and resuspended in lysis buffer (50 mM NaH2PO4, 300 mM NaCl, 10 mM imidazole (pH 8.0)). Lysis was performed by sonication (Branson Sonifier 250) with 5 cycles of 20 s on, 20 s off. Lysed cells were then centrifuged for 20 min at 15000×g. The clarified cell lysate was incubated with Ni-NTA resin (Qiagen) for 1 h while gently rotating at 4° C. The Ni-NTA column was washed with lysis buffer prior to eluting proteins with elution buffer (50 mM NaH2PO4, 300 mM NaCl, 300 mM imidazole (pH 8.0)). Elutions were analyzed with SDS-PAGE to prepare material for in-gel trypsin digestions. Controls included side-by-side growths in (1) unsupplemented 19/20 minimal media, which contains only low levels of α-Phe present (negative control); (2). 19/20 minimal media supplemented with 1 mM α-Phe (positive control) and (3) and 19/20 minimal media supplemented with 1 mM β^3-Gly (negative control; β^3-aa that is not a β^3-Phe analog).
# [14] = test system: BL21(DE3) cells expressing only WT ribosomes; assay: as above; format: cell-based, E. coli; settings: 19/20 minimal media supplemented with 1 mM of the amino acid
# From the text: as §1, §2
# [15] = test system: BL21(DE3) cells expressing P7A7 ribosomes along with WT ribosomes; assay: as above; format: cell-based, E. coli; settings: media supplemented with 1 mM of the amino acid
# From the text: as §1, §2
# [16] = test system: DHFR position 128 translated in E. coli BL21 (DE3); assay: Spectral counting (LC-MS/MS of tryptic peptides) of β3-(p-Br)Phe and α-Phe incorporation into DHFR in vivo; format: cell-based; settings: spectral counting
# From the text: as §1
# as §2, with “19/20 minimal media supplemented with 1 mM α-Phe (positive control) and (3) and 19/20 minimal media supplemented with 1 mM β^3-Gly (negative control; β^3-aa that is not a β^3-Phe analog).” left out
# T1 sequence (P04805 whole entry): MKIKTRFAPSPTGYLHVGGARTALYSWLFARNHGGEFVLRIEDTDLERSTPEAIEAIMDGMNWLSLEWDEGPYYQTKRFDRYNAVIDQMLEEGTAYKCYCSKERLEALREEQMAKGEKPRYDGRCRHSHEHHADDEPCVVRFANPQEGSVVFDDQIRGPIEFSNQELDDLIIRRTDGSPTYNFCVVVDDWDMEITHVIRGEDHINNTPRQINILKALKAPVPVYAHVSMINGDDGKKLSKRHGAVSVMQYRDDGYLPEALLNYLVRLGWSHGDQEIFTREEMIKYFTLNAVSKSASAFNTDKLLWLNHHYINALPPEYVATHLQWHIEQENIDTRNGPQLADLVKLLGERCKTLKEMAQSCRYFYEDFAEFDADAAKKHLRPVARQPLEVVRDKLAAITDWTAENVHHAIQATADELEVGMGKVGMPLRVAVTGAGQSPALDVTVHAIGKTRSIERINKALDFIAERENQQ
smiles,measurement,setting,value
"N[C@@H](CCC(=O)O)C(=O)O [α-Glu, Glutamic Acid]",Ratio (α/β) of KM,[1],0.94 ± 0.60
same,Ratio (α/β) of kcat,[1],61.2 ± 9.1
same,Ratio (α/β) of kcat/KM,[1],82.78 ± 68.2
same,krev (apparent rate of deacylation),[2],0.32 ± 0.14 min⁻¹
same,Ratio (α/β) of krev,"[2]; deacylation, GluRS",0.73 ± 0.42
same,Ratio (α-/β-) of KM,[3],0.35 ± 0.27
same,Ratio (α-/β-) of RSA,[3],31.6 ± 6.4
same,Ratio (α-/β-) of kcat/KM,[3],89.0 ± 70^
same,kcat (min^−1) or RSA (^32P-ATP formed min^−1 enzyme μM^−1),[3],1349 ± 206 ^32P-ATP formed min^−1 enzyme μM^−1
"CSCC[C@H](N)C(=O)O [α-Met, Methionine]",krev (apparent rate of deacylation),[4],2.1 ± 1.7 min⁻¹
same,Ratio (α/β) of krev,"[4]; deacylation, MetRS",0.52 ± 0.49
same,Ratio (α/β) of KM,[5]; aminoacylation,0.40 ± 0.18
same,Ratio (α/β) of kcat,[5]; aminoacylation,6.8 ± 1.3
same,Ratio (α/β) of kcat/KM,[5]; aminoacylation,17.0 ± 8.5
same,preference (kcat/KM) for α-Met over β^3-Met,[5]; complete aminoacylation reaction,19 fold
same,Ratio (α-/β-) of KM,[6]; adenylation,0.70 ± 0.5
same,Ratio (α-/β-) of RSA,[6]; adenylation,1.4 ± 0.2
same,Ratio (α-/β-) of kcat/KM,[6]; adenylation,1.98 ± 1.5
same,preference for α-Met over β^3-Met,[6]; adenylation phase,2 fold
same,kcat (min^−1) or RSA (^32P-ATP formed min^−1 enzyme μM^−1),[6]; adenylation,430 ± 38 ^32P-ATP formed min^−1 enzyme μM^−1
"N[C@@H](Cc1ccc(O)cc1)C(=O)O [α-Tyr, Tyrosine]",Ratio (α/β) of kcat,[7],56.3 ± 6.8
same,Ratio (α/β) of kcat/KM,[7],1541.7 ± 724.3
same,Ratio (α-/β-) of KM,[8],0.047 ± 0.03
same,Ratio (α-/β-) of kcat,[8],46.2 ± 7.7
same,Ratio (α-/β-) of kcat/KM,[8],972.6 ± 632.0
same,krev (apparent rate of deacylation),[9],1.9 ± 1.3 min⁻¹
same,Ratio (α/β) of krev,"[9]; deacylation, TyrRS",1.01 ± 0.75
"NC(CCC(=O)O)CC(=O)O (stereo not drawn) [β-Glu, β^3-glutamic acid]",Km,[1],375 ± 271 µM
same,kcat,[1]; 2 μM tRNA,1.25e-05 ± 1.5e-06 s⁻¹
same,krev (apparent rate of deacylation),[2],0.43 ± 0.15 min⁻¹
same,Km,[3],215 ± 110 µM
same,kcat (min^−1) or RSA (^32P-ATP formed min^−1 enzyme μM^−1),[3],42.7 ± 5.8 ^32P-ATP formed min^−1 enzyme μM^−1
"CSCCC(N)CC(=O)O (stereo not drawn) [β-Met, β^3-methionine]",krev (apparent rate of deacylation),[4],4.0 ± 1.8 min⁻¹
same,Km,[5]; aminoacylation,609 ± 243 µM
same,kcat,"[5]; aminoacylation, 2 μM tRNA",0.0035 ± 0.0005 s⁻¹
same,Km,[6]; adenylation,33.4 ± 22 µM
same,kcat (min^−1) or RSA (^32P-ATP formed min^−1 enzyme μM^−1),[6]; adenylation,310 ± 47 ^32P-ATP formed min^−1 enzyme μM^−1
"NC(CC(=O)O)Cc1ccccc1 (stereo not drawn) [β-Phe, β^3-phenylalanine]",Km,[10],300 ± 137 µM
same,kcat (min^−1) or RSA (^32P-ATP formed min^−1 enzyme μM^−1),"[10]; RSA, 25° C., pH 7.0",41.6 ± 6.8 ^32P-ATP formed min^−1 enzyme μM^−1
same,krev (apparent rate of deacylation),[11],0.32 ± 0.03 min⁻¹
same,Km,[12],119 ± 51.5 µM
same,kcat,[12]; 2 μM tRNA,0.004 ± 0.0005 s⁻¹
"NC(CC(=O)O)Cc1ccc(O)cc1 (stereo not drawn) [β-Tyr, β^3-tyrosine]",Km,[7],340 ± 80.3 µM
same,kcat,[7]; 2 μM tRNA,0.0208 ± 0.012 s⁻¹
same,Km,[8],450 µM
same,kcat (min^−1) or RSA (^32P-ATP formed min^−1 enzyme μM^−1),[8]; kcat (turnover number),0.027 ± 0.001 min⁻¹
same,krev (apparent rate of deacylation),[9],1.9 ± 0.6 min⁻¹
NC(CC(=O)O)Cc1ccc(Br)cc1 (stereo not drawn) [β^3-(p-Br)Phe],level of DHFR,[13],significant levels
same,amount of DHFR generated,[14],trace amounts
same,level of DHFR,[15],highest levels
same,lower incorporation of β^3-(p-Br)Phe relative to α-Phe,[16]; cells expressing 040329 ribosomes,30 fold
same,lower incorporation of β^3-(p-Br)Phe relative to α-Phe,[16]; cells expressing P7A7 ribosomes,10 fold
